How the values were obtained:
[1] = tested on: pUC18 circular plasmid DNA; experiment: DNA binding by agarose gel electrophoresis (migration shift of plasmid); conditions: for DNA binding: 10:1 metal complex:DNA base pair, with and without O2
From the text: (§1) FIG. 6. DNA binding and photocleavage by [{(bpy)2Ru(dpp)}2Ru(dpp)PtCl2](PF6)6 (Ru3Pt) assayed with 0.8% agarose gel electrophoresis post stained with ethidium bromide using circular plasmid pUC18 DNA with comparison to cis-[Pt(NH3)2Cl2] (Cisplatin) and [{(bpy)2Ru(dpp)}2Ru(dpp)](PF6)6 (Ru3) (bpy=2,2′-bipyridine, dpp=2,3-bis(2-pyridyl)pyrazine). Lanes λ are the molecular weight standards (23, 9.4, 6.6, 4.4, 2.3, and 2.0 kb), lanes C are the DNA controls showing mostly form I and minor form II pUC18 DNA. The cisplatin lane 1 is a 5:1 base pair (BP):metal complex (MC) and lane 2 a 20:1 BP:MC incubated for 1 hour at 37° C. The Ru3 lane 1 is a 20:1 BP:MC incubated for 1 hour at 37° C. The Ru3Pt lane 1 is 20:1 BP:MC kept in the dark at room temperature, lane 2 is 20:1 BP:MC incubated for 1 hour in the dark at 37° C., lane 3 is 20:1 BP:MC photolyzed with 450 nm-1000 nm light for 1 hour under atmospheric conditions, lane 4 is 20:1 BP:MC photolyzed with 450 nm-1000 nm light for 1 hour under argon.
(§2) FIG. 9. DNA binding and photocleavage by [{(bpy)2Ru(dpp)}2Ru(dpq)PtCl2](PF6)6. Lane 1 is the molecular weight standard, lane C is the pUC18 DNA plasmid control, lane 25° is 10:1 metal complex:DNA base pair incubated at 25° C., lane 37° is the 10:1 ratio incubated at 37° C., Ar* is the 10:1 ratio photolyzed for 1 hour under Ar, lane O2* is the 10:1 ratio photolyzed under ambient atmosphere.
as §2, with “10.” for “9.”, “[{(bpy)2Os(dpp)}2Ru(dpq)PtCl2](PF6)6.” for “[{(bpy)2Ru(dpp)}2Ru(dpq)PtCl2](PF6)6.”
(§3) The DNA binding and photocleavage ability of the exemplary complex, [{(bpy)2Ru(dpp)}2Ru(dpp)PtCl2](PF6)6, has been investigated using gel electrophoresis. The cis-dichloroplatinum(II) moiety is designed to allow the complex to bind covalently to DNA. The Ru polyazine units are designed to allow the complex to undergo sensitization of molecular oxygen leading to DNA photocleavage. The presence of the cis-dichloroplatinum(II) sub-unit delivers the Ru polyazine sub-unit to its target prior to optical excitation. DNA interactions of [{(bpy)2Ru(dpp)}2Ru(dpp)PtCl2](PF6)6 were compared to a binding analyses of Ru3 and cisplatin using gel electrophoresis and pUC18 circular plasmid DNA, (2686 BP, Bayou Biolabs) post-stained with ethidium bromide. Lanes λ are the molecular weight standards (23, 9.4, 6.6, 4.4, 2.3, and 2.0 kb). Lanes C are the pUC18 DNA controls, showing primarily the supercoiled (form I) and minor nicked (form II) forms of the circular pUC18 plasmid. The lane 1 for cisplatin is a 5:1 base pairs (BP):metal complex (MC) and lane 2 is a 20:1 BP:MC solution incubated at 37° C. for 1 hr. […] Lane 1 of “Ru3Pt” is the 20:1 DNA BP: MC solution of [{(bpy)2Ru(dpp)}2Ru(dpp)PtCl2](PF6)6 incubated at 37° C. for 1 hr. […] Lane 4 is a 20:1 BP:MC solution photolyzed at λ>450 nm for 1 hour, under argon.
A mixed-metal complex, [{(bpy)2Ru(dpp)}2Ru(dpq)PtCl2](PF6)6, was synthesized using bridging ligands dpq (2,3-bis(2-pyridyl)quinoxaline), and dpp (the ligand described in Example 1). The complex was tested for its ability to bind DNA and to photocleave the DNA in an O2 dependent manner by incubating the complex with DNA in the ambient atmosphere and under argon. […]

[2] = tested on: pUC18 circular plasmid DNA; experiment: DNA photocleavage by agarose gel electrophoresis (form I to form II conversion) after visible light photolysis; type: biochemical; conditions: for DNA photocleavage: 10:1 ratio; for DNA photocleavage (supercoiled form I to nicked form II): 20:1 BP:MC
From the text: as §1, §2
as §2, with “10.” for “9.”, “[{(bpy)2Os(dpp)}2Ru(dpq)PtCl2](PF6)6.” for “[{(bpy)2Ru(dpp)}2Ru(dpq)PtCl2](PF6)6.”
as §3
A mixed-metal complex, [{(bpy)2Ru(dpp)}2Ru(dpq)PtCl2](PF6)6, was synthesized using bridging ligands dpq (2,3-bis(2-pyridyl)quinoxaline), and dpp (the ligand described in Example 1). The complex was tested for its ability to bind DNA and to photocleave the DNA in an O2 dependent manner by incubating the complex with DNA in the ambient atmosphere and under argon. […] This illustrates the metal complex binds to DNA and photocleaves DNA in a oxygen dependent manner.
A mixed-metal complex, [{(bpy)2Os(dpp)}2Ru(dpq)PtCl2](PF6)6, was synthesized using bridging ligands dpq (2,3-bis(2-pyridyl)quinoxaline), and dpp (as described in Example 3) but using osmium as a light absorbing metal component. […] This illustrates this metal complex also binds to DNA and photocleaves DNA in a oxygen dependent manner.

[3] = photolyzed under ambient atmosphere (O2)

| Substance | DNA binding [1] | DNA photocleavage ([2]; photolyzed for 1 hour under Ar) | DNA photocleavage [2, 3] | further results |
| --- | --- | --- | --- | --- |
| [{(bpy)2Os(dpp)}2Ru(dpq)PtCl2](PF6)6 | effective in binding to DNA | not in the absence of O2 | cleaved only when O2 was present | – |
| [{(bpy)2Ru(dpp)}2Ru(dpp)PtCl2](PF6)6 [Ru3Pt] | – | – | – | DNA binding (migration of pUC18 through the gel) ([1]; Ru3Pt lane 1, 20:1 BP:MC, b60 prints incubated at 37° C. for 1 hr, FIG. 6 legend prints kept in the dark at room temperature): decreased migration of the form I pUC18 through the gel; DNA photocleavage (supercoiled form I to nicked form II) ([2]; photolyzed λ>450 nm for 1 hour, under argon): no DNA photocleavage is observed; DNA photocleavage (supercoiled form I to nicked form II) ([2]; photolyzed λirr>450 nm for 1 hour, under atmospheric conditions): appreciable conversion of the supercoiled (form 1) to nicked (form II) DNA |
| [{(bpy)2Ru(dpp)}2Ru(dpp)](PF6)6 [Ru3, reference compound] | – | – | – | DNA binding (migration of pUC18 through the gel) ([1]; 20:1 BP:MC, incubated at 37° C. for 1 hr): migration of the DNA is not impacted |
| [{(bpy)2Ru(dpp)}2Ru(dpq)PtCl2](PF6)6 | effective in binding to DNA | not in the absence of O2 | cleaved only when O2 was present | – |
| cis-[Pt(NH3)2Cl2] [cisplatin, reference compound] | – | – | – | DNA binding (migration of pUC18 through the gel) ([1]; 5:1 and 20:1 BP:MC, incubated at 37° C. for 1 hr): migration of form I of the pUC18 is retarded |

Reference: US8148360B2, “Supramolecular metallic complexes exhibiting both DNA binding and photocleavage” (Virginia Tech Intellectual Properties, Inc., priority 2006, dated 2012)
